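Interpolation was linear, between the two tested concentrations surrounding the appropriate level; five concentrations were tested over 48 hours in 96-well plates. At the GI50, growth is halved.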 Activity calls are given as the source filed them. Cut-off read from the data, not from the text of the source: active = GI50 up to about 1.1 µM and inactive = higher.
Experiments:
Assay in all cases: NCI tumour cell line growth inhibition, 48 h
MDA-N = tested on: MDA-N
SK-MEL-5 = tested on: SK-MEL-5
SK-MEL-2 = tested on: SK-MEL-2
EKVX = tested on: EKVX
MOLT-4 = tested on: MOLT-4
SF-295 = tested on: SF-295
M14 = tested on: M14
NCI-H23 = tested on: NCI-H23
UO-31 = tested on: UO-31
SN12C = tested on: SN12C
IGROV-1 = tested on: IGROV-1
RPMI-8226 = tested on: RPMI-8226
OVCAR-4 = tested on: OVCAR-4
RXF 393 = tested on: RXF 393
NCI-H522 = tested on: NCI-H522
Malme-3M = tested on: Malme-3M
OVCAR-5 = tested on: OVCAR-5
MCF7 = tested on: MCF7
SF-268 = tested on: SF-268
ACHN = tested on: ACHN
DU-145 = tested on: DU-145
HCT-15 = tested on: HCT-15
CAKI-1 = tested on: CAKI-1
Hs-578T = tested on: Hs-578T
HOP-62 = tested on: HOP-62
HL-60 = tested on: HL-60
HCC 2998 = tested on: HCC 2998
UACC-257 = tested on: UACC-257
SF-539 = tested on: SF-539
SK-MEL-28 = tested on: SK-MEL-28
SNB-19 = tested on: SNB-19
PC-3 = tested on: PC-3
LOX IMVI = tested on: LOX IMVI
SW-620 = tested on: SW-620
SR = tested on: SR
MDA-MB-231 = tested on: MDA-MB-231
A498 = tested on: A498
BT-549 = tested on: BT-549
OVCAR-3 = tested on: OVCAR-3
HCT-116 = tested on: HCT-116
KM12 = tested on: KM12
SNB-75 = tested on: SNB-75
NCI-H226 = tested on: NCI-H226
786-0 = tested on: 786-0
HT-29 = tested on: HT-29
COLO 205 = tested on: COLO 205
SK-OV-3 = tested on: SK-OV-3
NCI-H460 = tested on: NCI-H460
OVCAR-8 = tested on: OVCAR-8
U-251 = tested on: U-251
MDA-MB-435 = tested on: MDA-MB-435
T47D = tested on: T47D
K562 = tested on: K562
HOP-92 = tested on: HOP-92
A549 = tested on: A549
TK-10 = tested on: TK-10
NCI/ADR-RES = tested on: NCI/ADR-RES
CCRF-CEM = tested on: CCRF-CEM
UACC-62 = tested on: UACC-62

SMILES: O=C(O)c1ccccc1CC(Cc1ccccc1)C(=O)O (stereo not drawn)
- GI50 (MDA-N): > 100 µM (inactive)
- GI50 (SK-MEL-5): > 100 µM (inactive)
- GI50 (SK-MEL-2): > 100 µM (inactive)
- GI50 (EKVX): > 100 µM (inactive)
- GI50 (MOLT-4): > 100 µM (inactive)
- GI50 (SF-295): > 100 µM (inactive)
- GI50 (M14): > 100 µM (inactive)
- GI50 (NCI-H23): > 100 µM (inactive)
- GI50 (UO-31): > 100 µM (inactive)
- GI50 (SN12C): > 100 µM (inactive)
- GI50 (IGROV-1): > 100 µM (inactive)
- GI50 (RPMI-8226): > 100 µM (inactive)
- GI50 (OVCAR-4): > 100 µM (inactive)
- GI50 (RXF 393): > 100 µM (inactive)
- GI50 (NCI-H522): > 100 µM (inactive)
- GI50 (Malme-3M): > 100 µM (inactive)
- GI50 (OVCAR-5): > 100 µM (inactive)
- GI50 (MCF7): > 10 µM (inactive)
- GI50 (SF-268): 97.1 µM (inactive)
- GI50 (ACHN): > 100 µM (inactive)
- GI50 (DU-145): > 100 µM (inactive)
- GI50 (HCT-15): > 100 µM
- GI50 (CAKI-1): > 100 µM (inactive)
- GI50 (Hs-578T): > 100 µM (inactive)
- GI50 (HOP-62): > 100 µM (inactive)
- GI50 (HL-60): > 100 µM (inactive)
- GI50 (HCC 2998): > 100 µM (inactive)
- GI50 (UACC-257): > 100 µM (inactive)
- GI50 (SF-539): > 100 µM (inactive)
- GI50 (SK-MEL-28): > 100 µM (inactive)
- GI50 (SNB-19): > 100 µM (inactive)
- GI50 (PC-3): > 100 µM (inactive)
- GI50 (LOX IMVI): > 100 µM (inactive)
- GI50 (SW-620): > 100 µM (inactive)
- GI50 (SR): > 100 µM (inactive)
- GI50 (MDA-MB-231): > 100 µM (inactive)
- GI50 (A498): > 100 µM (inactive)
- GI50 (BT-549): > 100 µM (inactive)
- GI50 (OVCAR-3): > 100 µM (inactive)
- GI50 (HCT-116): > 100 µM (inactive)
- GI50 (KM12): > 100 µM (inactive)
- GI50 (SNB-75): > 100 µM (inactive)
- GI50 (NCI-H226): > 100 µM (inactive)
- GI50 (786-0): > 100 µM (inactive)
- GI50 (HT-29): > 100 µM (inactive)
- GI50 (COLO 205): > 100 µM (inactive)
- GI50 (SK-OV-3): > 100 µM (inactive)
- GI50 (NCI-H460): > 100 µM (inactive)
- GI50 (OVCAR-8): > 100 µM (inactive)
- GI50 (U-251): > 100 µM (inactive)
- GI50 (MDA-MB-435): > 100 µM (inactive)
- GI50 (T47D): > 100 µM (inactive)
- GI50 (K562): > 100 µM (inactive)
- GI50 (HOP-92): > 100 µM (inactive)
- GI50 (A549): > 100 µM (inactive)
- GI50 (TK-10): > 100 µM (inactive)
- GI50 (NCI/ADR-RES): > 100 µM (inactive)
- GI50 (CCRF-CEM): > 100 µM (inactive)

SMILES: N#C[BH2-][n+]1ccc(C(=O)NNCc2ccccc2)cc1
- GI50 (UACC-62): > 100 µM (inactive)
- GI50 (MDA-N): > 100 µM (inactive)
- GI50 (SK-MEL-5): > 100 µM (inactive)
- GI50 (SK-MEL-2): > 100 µM (inactive)
- GI50 (EKVX): > 100 µM (inactive)
- GI50 (MOLT-4): > 100 µM (inactive)
- GI50 (SF-295): > 100 µM (inactive)
- GI50 (M14): > 100 µM (inactive)
- GI50 (UO-31): > 100 µM (inactive)
- GI50 (SN12C): > 100 µM (inactive)
- GI50 (IGROV-1): > 100 µM (inactive)
- GI50 (RPMI-8226): > 100 µM (inactive)
- GI50 (OVCAR-4): > 100 µM (inactive)
- GI50 (RXF 393): > 100 µM (inactive)
- GI50 (NCI-H522): > 100 µM (inactive)
- GI50 (Malme-3M): > 100 µM (inactive)
- GI50 (OVCAR-5): > 100 µM (inactive)
- GI50 (MCF7): > 100 µM (inactive)
- GI50 (SF-268): > 100 µM (inactive)
- GI50 (ACHN): > 100 µM (inactive)
- GI50 (DU-145): > 100 µM (inactive)
- GI50 (HCT-15): > 100 µM
- GI50 (CAKI-1): > 100 µM (inactive)
- GI50 (Hs-578T): > 100 µM (inactive)
- GI50 (HL-60): > 100 µM (inactive)
- GI50 (HCC 2998): > 100 µM (inactive)
- GI50 (UACC-257): > 100 µM (inactive)
- GI50 (SF-539): > 100 µM (inactive)
- GI50 (SK-MEL-28): > 100 µM (inactive)
- GI50 (SNB-19): > 100 µM (inactive)
- GI50 (PC-3): > 100 µM (inactive)
- GI50 (LOX IMVI): > 100 µM (inactive)
- GI50 (SW-620): > 100 µM (inactive)
- GI50 (SR): > 100 µM (inactive)
- GI50 (MDA-MB-231): > 100 µM (inactive)
- GI50 (A498): > 100 µM (inactive)
- GI50 (BT-549): > 100 µM (inactive)
- GI50 (OVCAR-3): > 100 µM (inactive)
- GI50 (HCT-116): > 100 µM (inactive)
- GI50 (KM12): > 100 µM (inactive)
- GI50 (SNB-75): > 100 µM (inactive)
- GI50 (NCI-H226): > 100 µM (inactive)
- GI50 (786-0): > 100 µM (inactive)
- GI50 (COLO 205): > 100 µM (inactive)
- GI50 (NCI-H460): > 100 µM (inactive)
- GI50 (OVCAR-8): > 100 µM (inactive)
- GI50 (U-251): > 100 µM (inactive)
- GI50 (MDA-MB-435): > 100 µM (inactive)
- GI50 (T47D): > 100 µM (inactive)
- GI50 (K562): > 100 µM (inactive)
- GI50 (HOP-92): > 100 µM (inactive)
- GI50 (A549): > 100 µM (inactive)
- GI50 (TK-10): > 100 µM (inactive)
- GI50 (NCI/ADR-RES): > 100 µM (inactive)
- GI50 (CCRF-CEM): > 100 µM (inactive)
